Calls of active or inactive are those of the source. The calls are words filed in the database; no cut-off is given here.
Experiments:
[1] = target: T1, Somatostatin receptor type 5 (Mus musculus, UniProt O08858); assay: Antagonist activity at N-terminal HA-tagged mouse SSTR5 expressed in CHO cells assessed as change in intracellular […] level preincubated with agonist for 10 mins followed by compound addition by CRE-driven luciferase reporter based microplate reader; assay type: functional, cell-based
T1 sequence (O08858 whole entry): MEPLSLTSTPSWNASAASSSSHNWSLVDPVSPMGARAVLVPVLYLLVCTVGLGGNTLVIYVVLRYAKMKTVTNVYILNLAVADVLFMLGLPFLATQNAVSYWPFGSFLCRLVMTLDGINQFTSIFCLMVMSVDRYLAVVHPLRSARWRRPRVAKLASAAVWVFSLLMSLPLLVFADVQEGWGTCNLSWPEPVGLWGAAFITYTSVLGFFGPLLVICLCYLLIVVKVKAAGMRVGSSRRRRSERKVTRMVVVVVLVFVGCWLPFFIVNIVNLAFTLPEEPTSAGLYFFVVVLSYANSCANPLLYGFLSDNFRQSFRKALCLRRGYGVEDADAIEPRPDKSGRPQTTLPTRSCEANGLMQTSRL

CHO = assay: Cytotoxicity against CHO cells upto 10 uM; details: chinese hamster
[2] = target: Somatostatin receptor type 5 (Homo sapiens, UniProt P35346); assay: Antagonist activity at N-terminal HA-tagged human SSTR5 expressed in CHO cells assessed as change in intracellular […] level preincubated with agonist for 10 mins followed by compound addition by CRE-driven luciferase reporter based microplate reader; assay type: functional, cell-based
[3] = Metabolic stability in human liver microsomes assessed as parent compound remaining at 1 uM incubated for 30 mins in presence of NADPH by LC-MS/MS analysis; assay type: ADME, Microsome; details: read-out: Stability
[4] = target: Voltage-gated inwardly rectifying potassium channel KCNH2 (Homo sapiens, UniProt Q12809); assay: Inhibition of hERG expressed in CHO cells by Qpatch automatic patch clamp method
[5] = Metabolic stability in mouse liver microsomes assessed as parent compound remaining at 1 uM incubated for 30 mins in presence of NADPH by LC-MS/MS analysis; assay type: ADME, Microsome; details: read-out: Stability
[6] = Cytotoxicity against CHO cells assessed as cellular ATP at 10 uM relative to control; assay type: toxicity, cell-based, Cricetulus griseus; details: chinese hamster, read-out: Activity
[7] = Half-life in C57BL/6J mouse at 3 mg/kg, po measured at 0.25 to 24 hrs by LC-MS/MS analysis; assay type: ADME, organism-based; details: in vivo, time 0.25-24 hrs
[8] = Tmax in C57BL/6J mouse at 3 mg/kg, po measured at 0.25 to 24 hrs by LC-MS/MS analysis; assay type: ADME, organism-based; details: in vivo, time 0.25-24 hrs
[9] = Cmax in C57BL/6J mouse at 3 mg/kg, po measured at 0.25 to 24 hrs by LC-MS/MS analysis; assay type: ADME, organism-based; details: in vivo, time 0.25-24 hrs
[10] = Observed AUC (0 to infinity) in C57BL/6J mouse at 3 mg/kg, po measured at 0.25 to 24 hrs by LC-MS/MS analysis; assay type: ADME, organism-based; details: in vivo, time 0.25-24 hrs
[11] = Oral bioavailability in C57BL/6J mouse at 3 mg/kg measured at 0.25 to 24 hrs by LC-MS/MS analysis; assay type: ADME, organism-based; details: in vivo, time 0.25-24 hrs
[12] = Half-life in C57BL/6J mouse at 1 mg/kg, iv measured at 0.05 to 24 hrs by LC-MS/MS analysis; assay type: ADME, organism-based; details: in vivo, time 0.05-24 hrs
[13] = Observed AUC (0 to infinity) in C57BL/6J mouse at 1 mg/kg, iv measured at 0.05 to 24 hrs by LC-MS/MS analysis; assay type: ADME, organism-based; details: in vivo, time 0.05-24 hrs
[14] = Observed clearance in C57BL/6J mouse at 1 mg/kg, iv measured at 0.05 to 24 hrs by LC-MS/MS analysis; assay type: ADME, organism-based; details: in vivo, time 0.05-24 hrs
[15] = Observed volume of distribution at steady state in C57BL/6J mouse at 1 mg/kg, iv measured at 0.05 to 24 hrs by LC-MS/MS analysis; assay type: ADME, organism-based; details: in vivo, time 0.05-24 hrs, read-out: Vdss
Mus musculus [16] = assay: Induction of gallbladder emptying in C57BL/6J mouse assessed as reduction in gallbladder weight at 10 mg/kg, po preadministered with compound for 30 mins followed by egg yolk administration and measured after 15 mins; assay type: functional, organism-based; details: time 45.0 min
Mus musculus [17] = assay: Protection against lithogenic diet induced cholesterol gallstone C57BL/6J mouse model assessed as reduction in cholesterol gallstone formation at 1 to 3 mg/kg, po administered once daily for 14 days; assay type: functional, organism-based; details: dose 1-3 mg/kg, time 14.0 day
Mus musculus [18] = assay: Protection against lithogenic diet induced cholesterol gallstone C57BL/6J mouse model assessed as reduction in large gallstone precipitate at 1 to 3 mg/kg, po administered once daily for 14 days; assay type: functional, organism-based; details: dose 1-3 mg/kg, time 14.0 day
Mus musculus [19] = assay: Protection against lithogenic diet induced cholesterol gallstone C57BL/6J mouse model assessed as reduction in dense-cored gallstone precipitate at 1 to 3 mg/kg, po administered once daily for 14 days; assay type: functional, organism-based; details: dose 1-3 mg/kg, time 14.0 day
Mus musculus [20] = assay: Protection against lithogenic diet induced cholesterol gallstone C57BL/6J mouse model assessed as reduction in large gallstone precipitate at 60 mg/kg, po administered once daily for 14 days; assay type: functional, organism-based; details: time 14.0 day
Mus musculus [21] = assay: Protection against lithogenic diet induced cholesterol gallstone C57BL/6J mouse model assessed as reduction in dense-cored gallstone precipitate at 60 mg/kg, po administered once daily for 14 days; assay type: functional, organism-based; details: time 14.0 day
Mus musculus [22] = assay: Protection against lithogenic diet induced cholesterol gallstone C57BL/6J mouse model assessed as reduction in cholesterol gallstone formation at 60 mg/kg, po administered once daily for 14 days; assay type: functional, organism-based; details: time 14.0 day

Somatostatin receptor type 5 (Homo sapiens, UniProt P35346), sequence (P35346 whole entry): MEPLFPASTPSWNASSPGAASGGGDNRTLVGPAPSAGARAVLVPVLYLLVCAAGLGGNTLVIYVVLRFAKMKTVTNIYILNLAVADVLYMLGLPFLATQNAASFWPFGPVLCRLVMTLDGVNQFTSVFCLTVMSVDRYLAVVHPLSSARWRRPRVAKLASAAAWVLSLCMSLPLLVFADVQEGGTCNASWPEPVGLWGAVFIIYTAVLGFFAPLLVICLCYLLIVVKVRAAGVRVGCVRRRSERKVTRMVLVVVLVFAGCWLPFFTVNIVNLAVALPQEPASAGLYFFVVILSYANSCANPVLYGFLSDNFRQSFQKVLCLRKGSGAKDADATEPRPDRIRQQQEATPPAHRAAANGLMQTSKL
Voltage-gated inwardly rectifying potassium channel KCNH2, sequence (Q12809 whole entry): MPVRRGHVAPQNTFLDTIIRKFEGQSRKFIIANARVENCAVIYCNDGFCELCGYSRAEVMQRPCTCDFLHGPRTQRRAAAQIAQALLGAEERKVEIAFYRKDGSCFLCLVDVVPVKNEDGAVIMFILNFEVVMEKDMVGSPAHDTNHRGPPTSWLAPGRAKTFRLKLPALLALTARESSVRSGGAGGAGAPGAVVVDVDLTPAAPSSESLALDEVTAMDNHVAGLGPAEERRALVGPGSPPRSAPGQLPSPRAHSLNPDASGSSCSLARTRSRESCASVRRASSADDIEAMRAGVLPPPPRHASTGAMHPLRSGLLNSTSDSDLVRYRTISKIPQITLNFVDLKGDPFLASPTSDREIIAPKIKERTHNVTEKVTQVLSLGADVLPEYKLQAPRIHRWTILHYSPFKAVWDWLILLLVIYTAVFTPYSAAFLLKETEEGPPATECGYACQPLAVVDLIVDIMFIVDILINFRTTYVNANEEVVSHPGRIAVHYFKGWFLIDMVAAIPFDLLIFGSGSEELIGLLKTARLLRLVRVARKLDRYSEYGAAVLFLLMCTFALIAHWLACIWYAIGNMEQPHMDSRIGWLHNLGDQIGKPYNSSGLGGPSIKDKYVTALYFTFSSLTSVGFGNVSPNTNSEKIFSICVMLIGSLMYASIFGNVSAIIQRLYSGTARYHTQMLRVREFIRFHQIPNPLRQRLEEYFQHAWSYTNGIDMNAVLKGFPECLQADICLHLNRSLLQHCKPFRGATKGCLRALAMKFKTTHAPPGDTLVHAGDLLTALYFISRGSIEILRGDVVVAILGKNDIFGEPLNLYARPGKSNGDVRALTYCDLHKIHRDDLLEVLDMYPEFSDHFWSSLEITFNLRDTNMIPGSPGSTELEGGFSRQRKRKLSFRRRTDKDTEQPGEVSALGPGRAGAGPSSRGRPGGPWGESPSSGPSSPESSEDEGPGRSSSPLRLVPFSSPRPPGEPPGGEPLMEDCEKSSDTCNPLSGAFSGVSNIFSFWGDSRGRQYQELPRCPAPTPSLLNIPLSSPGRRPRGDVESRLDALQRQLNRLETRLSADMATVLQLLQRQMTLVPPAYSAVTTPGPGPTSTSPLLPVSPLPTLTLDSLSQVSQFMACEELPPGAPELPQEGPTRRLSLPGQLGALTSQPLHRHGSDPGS

Structure (SMILES) | IC50 [1] | Activity (CHO) | also measured
CCOc1cc(CN2CCC(O)(Cc3ccc(C(=O)O)cc3)CC2)cc(OCC)c1-c1ccc(F)cc1 | 176 nM | Non-Toxic | 
CCOc1cc(CN2CCC(O)(c3ccc(Cl)cc3)CC2)cc(OCC)c1-c1ccc(F)cc1 | 11100 nM | Non-Toxic | 
CCOc1cc(CN2CCC(F)(CNc3ccc(C(=O)O)c(Cl)c3)CC2)cc(OCC)c1-c1ccc(F)cc1 | 42.2 nM | Non-Toxic | 
CCOc1cc(CN2CCC(C)(COc3ccc(C(=O)O)cc3)CC2)cc(OCC)c1-c1ccc(F)cc1 | 1860 nM | Non-Toxic | IC50 [2]: 3410 nM
CCOc1cc(CN2CCC(C(=O)Nc3ccc(C(=O)O)cc3)CC2)cc(OCC)c1-c1ccc(F)cc1 | 853 nM | Non-Toxic | 
CCOc1cc(CN2CCC(F)(CNc3ccc(C(=O)O)c(OC)c3)CC2)cc(OCC)c1-c1ccc(F)cc1 | 1.4 nM | Non-Toxic | IC50 [2]: 2.8 nM; remaining at 0.5 h, 1 µM [3]: 92.5%; IC50 [4]: > 20 µM; remaining at 0.5 h, 1 µM [5]: 59.8%; viability at 10 µM [6]: 92%; half-life [7]: 215 min; Tmax [8]: 19.8 min; Cmax [9]: 208 ng/mL; AUC(0-inf) [10]: 494 ng·h/mL; bioavailability [11]: 29.3%; half-life [12]: 147 min; AUC(0-inf) [13]: 562 ng·h/mL; clearance [14]: 30.5 mL/min/kg; Vd [15]: 2.6 L/kg; Activity (Mus musculus [16]): Active; Activity (Mus musculus [17]): Active; Activity (Mus musculus [18]): Active; Activity (Mus musculus [19]): Active; Activity (Mus musculus [20]): Active; Activity (Mus musculus [21]): Active
CCOc1cc(CN2CCC(F)(CNc3ccc(C(=O)O)cc3Cl)CC2)cc(OCC)c1-c1ccc(F)cc1 | 132 nM | Non-Toxic | 
CCOc1cc(CN2CCC(COc3ccc(C(=O)O)cc3)CC2)cc(OCC)c1-c1ccc(F)cc1 | 11.5 nM |  | 
CCOc1cc(CN2CCC(C)(C(=O)Nc3ccc(C(=O)O)cc3)CC2)cc(OCC)c1-c1ccc(F)cc1 | 12200 nM | Non-Toxic | 
CCOc1cc(CN2CCC(F)(C(=O)Nc3ccc(C(=O)O)cc3)CC2)cc(OCC)c1-c1ccc(F)cc1 | 2560 nM | Non-Toxic | 
CCOc1cc(CN2CCC(F)(CNc3ccc(C(=O)O)c(C)c3)CC2)cc(OCC)c1-c1ccc(F)cc1 | 97.5 nM | Non-Toxic | 
CCOc1cc(CN2CCC(C)(CNc3ccc(C(=O)O)cc3)CC2)cc(OCC)c1-c1ccc(F)cc1 | 128 nM | Non-Toxic | 
CCOc1cc(CN2CCC(O)(CNc3ccc(C(=O)O)cc3)CC2)cc(OCC)c1-c1ccc(F)cc1 | 52 nM | Non-Toxic | 
CCOc1cc(CN2CCC(CNc3ccc(C(=O)O)cc3)CC2)cc(OCC)c1-c1ccc(F)cc1 | 91.7 nM | Non-Toxic | 
CCOc1cc(CN2CC(Nc3ccc(C(=O)O)cc3)C2)cc(OCC)c1-c1ccc(F)cc1 | 183 nM | Non-Toxic | IC50 [2]: 1010 nM
CCOc1cc(CN2CCC(Oc3ccc(C(=O)O)cc3)CC2)cc(OCC)c1-c1ccc(F)cc1 | 44.3 nM | Non-Toxic | 
C[C@H](CCC(=O)O)[C@H]1CC[C@H]2[C@@H]3[C@@H](O)C[C@@H]4C[C@H](O)CC[C@]4(C)[C@H]3CC[C@]12C |  |  | Activity (Mus musculus [22]): Active
CCOc1cc(CN2CCC(F)(CNc3ccc(C(=O)O)cc3OC)CC2)cc(OCC)c1-c1ccc(F)cc1 | 20.5 nM | Non-Toxic | 
CCOc1cc(CN2CCC(F)(CNc3ccc(C(=O)O)cc3)CC2)cc(OCC)c1-c1ccc(F)cc1 | 13.9 nM | Non-Toxic | IC50 [2]: 27.6 nM; IC50 [4]: > 20 µM; remaining at 0.5 h, 1 µM [5]: 81.4%
CCOc1cc(CN2CCC(F)(CNc3ccc(C(=O)O)cc3C)CC2)cc(OCC)c1-c1ccc(F)cc1 | 25.4 nM | Non-Toxic | 
CCOc1cc(CN2CC(CNc3ccc(C(=O)O)cc3)C2)cc(OCC)c1-c1ccc(F)cc1 | 157 nM | Non-Toxic | 
CCOc1cc(CN2CCC(F)(CNc3ccc(N)cc3)CC2)cc(OCC)c1-c1ccc(F)cc1 | 1770 nM | Non-Toxic | 
CN(C)C(=O)C(CCN1CCC(O)(c2ccc(Cl)cc2)CC1)(c1ccccc1)c1ccccc1 [LOPERAMIDE] | 63600 nM | Non-Toxic | IC50 [2]: 33100 nM
CCOc1cc(CN2CCC(F)(COc3ccc(C(=O)O)cc3)CC2)cc(OCC)c1-c1ccc(F)cc1 | 14.8 nM | Non-Toxic | remaining at 0.5 h, 1 µM [5]: 61%
CCOc1cc(CN2CCC(F)(CNc3ccc(O)cc3)CC2)cc(OCC)c1-c1ccc(F)cc1 | 1300 nM | Non-Toxic | 
CCOc1cc(CN2CCC(O)(COc3ccc(C(=O)O)cc3)CC2)cc(OCC)c1-c1ccc(F)cc1 | 51.1 nM | Non-Toxic | 
CCOc1cc(CN2CC(COc3ccc(C(=O)O)cc3)C2)cc(OCC)c1-c1ccc(F)cc1 | 394 nM | Non-Toxic | 
CCOc1cc(CN2CCC(O)(C(=O)Nc3ccc(C(=O)O)cc3)CC2)cc(OCC)c1-c1ccc(F)cc1 | 14700 nM | Non-Toxic | IC50 [2]: 22900 nM

From ChEMBL document CHEMBL5537140, “Discovery and exploration of novel somatostatin receptor subtype 5 (SSTR5) antagonists for the treatment of cholesterol gallstones” (Eur J Med Chem, 2024)
